Laboratory results from patent publication US11230525B2, “Organic sulfur compound, method for preparing same, and pharmaceutical composition for preventing or treating cancer or an inflammatory disease, containing same as active ingredient” (SOOKMYUNG WOMENS UNIVERSITY INDUSTRY-ACADEMIC COOPERATION …, priority 2016, dated 2022).

Assays:
[1] = tested on: renal cancer cell line (ACHN); assay: Cancer proliferation inhibitory activity (SRB, GI50), ACHN; format: cell-based; conditions: Homo sapiens, 48 hours
Description: (§1) Particularly, the cancer proliferation inhibitory activity of the compounds of comparative examples (Ajoene and the compounds isosteric to Ajoene wherein R1 is allyl or benzyl) and the compounds of examples of the present invention (the compounds not isosteric to Ajoene wherein R^1 is phenyl) was investigated in human cancer cell lines (renal cancer cell line (ACHN), breast cancer cell line (MDA-MB-231), colorectal cancer cell line (HCT-15), prostate cancer cell line (PC-3), gastric cancer cell line (NUGC-3) and lung cancer cell line (NCl-H23)).
(§2) At this time, the cancer cell lines (renal cancer cell line (ACHN), breast cancer cell line (MDA-MB-231), colorectal cancer cell line (HCT-15), prostate cancer cell line (PC-3), gastric cancer cell line (NUGC-3) and lung cancer cell line (NCl-H23)) above were purchased from American Type Culture Collection (Manassas, Va., USA). Cells were cultured in RPMI 1640 supplemented with 10% fetal bovine serum, which were maintained 37° C. under 5% CO2 wet atmosphere. The cells were distributed in a 96-well plate, which was not treated (treated only with 0.1% DMSO) or treated with the compounds of examples of the present (0.1 μM to 10 μM). 48 hours later, the cells were fixed in 50% trichloroacetic acid, followed by staining with 1% acetic acid containing 0.4% sulphorodamine B dissolved therein. The non-conjugated dye was removed by washing with 1% acetic acid, and the protein conjugated dye was extracted with 10 mM Tris base (pH 10.5). Then, OD540 was measured with VersaMax microplate reader (Molecular devices, Sunnyvale, Calif., USA). GI50 was calculated by using GraphPad Prism software (GraphPad Software, Inc., San Diego, Calif., USA).
(§3) Based on the results obtained in experimental example 1-1 above, the derivatives wherein R^1 is phenyl were additionally synthesized. The cancer proliferation inhibitory activity of the derivatives was evaluated by the same manner as described in experimental example 1-1.

[2] = tested on: gastric cancer cell line (NUGC-3); assay: Cancer proliferation inhibitory activity (SRB, GI50), NUGC-3; format: cell-based; conditions: Homo sapiens, 48 hours
Description: as §1, §2, §3

HDAC 1 = HDAC 1 (Homo sapiens, UniProt Q13547); assay: HDAC enzyme fluorescence assay, HDAC 1; format: biochemical; conditions: recombinant HDAC enzyme, Boc-Lys(acetyl)-AMC
Chain of HDAC 1 (Q13547 whole entry, species assumed): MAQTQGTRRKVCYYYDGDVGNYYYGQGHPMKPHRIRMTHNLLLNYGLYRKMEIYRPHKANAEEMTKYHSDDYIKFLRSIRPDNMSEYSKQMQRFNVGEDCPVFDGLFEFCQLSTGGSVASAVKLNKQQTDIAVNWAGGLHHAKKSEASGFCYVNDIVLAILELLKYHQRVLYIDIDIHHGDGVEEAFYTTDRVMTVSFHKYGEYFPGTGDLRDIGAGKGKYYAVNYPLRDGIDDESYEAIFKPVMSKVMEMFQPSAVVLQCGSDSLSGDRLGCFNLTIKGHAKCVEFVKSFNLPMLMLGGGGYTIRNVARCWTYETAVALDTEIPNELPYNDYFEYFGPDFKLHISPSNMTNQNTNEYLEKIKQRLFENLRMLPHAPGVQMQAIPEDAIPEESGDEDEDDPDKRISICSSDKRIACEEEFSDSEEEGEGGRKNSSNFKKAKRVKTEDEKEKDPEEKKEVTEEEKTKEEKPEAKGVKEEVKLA
Description: (§4) Particularly, HDAC enzyme analysis was performed based on a uniform fluorescence emission assay. First, the compounds of examples of the present invention or comparative example 1 were diluted at different concentrations, which were treated to the analysis buffer containing 25 mM HEPES (pH 8.0), 137 mM NaCl, 1 mM MgCl2 and 2.7 mM KCL, followed by culture of the recombinant HDAC enzyme. 10 minutes later, Boc-Lys(acetyl)-AMC, the fluorescence inducing substrate, was added thereto, followed by further culture at 37° C. At this time, the concentration of the fluorescence inducing substrate and the culture time were adjusted according to the isotypes of the HDAC enzyme. The reaction was terminated by treating trypsin at room temperature for 20 minutes. The fluorescence intensity was measured using a fluorescence analyzer at an excitation wavelength of 380 nm and an emission wavelength of 460 nm, respectively. The inhibition rate was calculated from the measured fluorescence intensity of each well with comparing to that of the control well. IC50 of the compound was calculated by analyzing the dose-reaction inhibition curve.

[3] = tested on: breast cancer cell line (MDA-MB-231); assay: Cancer proliferation inhibitory activity (SRB, GI50), MDA-MB-231; format: cell-based; conditions: Homo sapiens, 48 hours
Description: as §1, §2, §3

[4] = tested on: colorectal cancer cell line (HCT-15); assay: Cancer proliferation inhibitory activity (SRB, GI50), HCT-15; format: cell-based; conditions: Homo sapiens, 48 hours
Description: as §1, §2, §3

HDAC 8 = biological target: T1, HDAC 8 (Homo sapiens, UniProt Q9BY41); assay: HDAC enzyme fluorescence assay, HDAC 8; format: biochemical; set-up: Inhibitory activity (%) HDAC 8: concentration or dose not given beside the values; conditions: for Inhibitory activity (%) HDAC 8: (HDAC inhibitory activity of example compound/HDAC inhibitory activity of SAHA) × 100
T1 sequence (Q9BY41 1-377): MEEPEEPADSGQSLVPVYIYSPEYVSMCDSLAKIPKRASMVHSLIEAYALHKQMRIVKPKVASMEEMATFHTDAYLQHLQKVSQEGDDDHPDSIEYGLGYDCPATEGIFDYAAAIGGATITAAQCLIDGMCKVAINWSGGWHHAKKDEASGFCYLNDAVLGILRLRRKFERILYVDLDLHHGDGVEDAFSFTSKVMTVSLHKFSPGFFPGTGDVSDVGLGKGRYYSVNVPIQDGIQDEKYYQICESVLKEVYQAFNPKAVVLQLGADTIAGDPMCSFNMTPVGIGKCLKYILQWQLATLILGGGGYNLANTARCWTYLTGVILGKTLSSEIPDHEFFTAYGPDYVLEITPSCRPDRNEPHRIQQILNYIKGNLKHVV
Description: as §4
The HDAC 8 inhibitory activity was presented as percentage of relative activity by the inhibitory activity of SAHA (Vorinostat) used as a reference compound.

[5] = tested on: prostate cancer cell line (PC-3); assay: Cancer proliferation inhibitory activity (SRB, GI50), PC-3; format: cell-based; conditions: Homo sapiens, 48 hours
Description: as §1, §2, §3

[6] = tested on: lung cancer cell line (NCl-H23); assay: Cancer proliferation inhibitory activity (SRB, GI50), NCI-H23; format: cell-based; conditions: Homo sapiens, 48 hours
Description: as §1, §2, §3

[7] = tested on: PC-3 cells, human prostate cancer cells; assay: Anticancer activity in prostate cancer xenograft model; format: in vivo, mice; conditions: 50 mg/kg (SAHA 100 mg/kg) once a day for 16 days, compared with the non-treated group
Description: Particularly, 9×10^6 PC-3 cells, human prostate cancer cells, were inoculated subcutaneously to the right side of female BALB/c nu/nu mice at 5 weeks of age (Nara Biotech, Seoul, Republic of Korea).
(§5) When the tumor size reached 40-60 mm^3, the mice were randomly grouped (4 mice per group), which were the non-treated group (10% dimethylacetamide, 10% tween 80 and 80% distilled water), the groups treated with the compounds of comparative examples 1 and 2 (Ajoene, 50 mg/kg), the groups treated with the compounds of examples 18 and 32 (50 mg/kg), and the group treated with the positive control SAHA (Vorinostat, 100 mg/kg). The treatment was performed once a day for 16 days in total. During the treatment, the tumor size was measured with a vernier caliper, followed by evaluation according to the following formula: length (mm)×width (mm)×height (mm)/2. The weights were measured regularly.
(§6) Upon completion of the treatment (16 days later), the mice were sacrificed and the tumor weights were measured. All the experiments were performed according to the experiment protocol approved by Institutional Animal care and Use Committee (IACUC), Korea Research Institute of Bioscience and Biotechnology (KRIBB).

[8] = Body weight of mice in prostate cancer xenograft model; format: in vivo; conditions: 50 mg/kg (SAHA 100 mg/kg) once a day for 16 days
Description: as §5, §6

HDAC 6 = biological target: T2, HDAC 6 (Homo sapiens, UniProt Q9UBN7); assay: HDAC enzyme fluorescence assay, HDAC 6; format: biochemical; conditions: recombinant HDAC enzyme, Boc-Lys(acetyl)-AMC
T2 sequence (Q9UBN7 1-1215): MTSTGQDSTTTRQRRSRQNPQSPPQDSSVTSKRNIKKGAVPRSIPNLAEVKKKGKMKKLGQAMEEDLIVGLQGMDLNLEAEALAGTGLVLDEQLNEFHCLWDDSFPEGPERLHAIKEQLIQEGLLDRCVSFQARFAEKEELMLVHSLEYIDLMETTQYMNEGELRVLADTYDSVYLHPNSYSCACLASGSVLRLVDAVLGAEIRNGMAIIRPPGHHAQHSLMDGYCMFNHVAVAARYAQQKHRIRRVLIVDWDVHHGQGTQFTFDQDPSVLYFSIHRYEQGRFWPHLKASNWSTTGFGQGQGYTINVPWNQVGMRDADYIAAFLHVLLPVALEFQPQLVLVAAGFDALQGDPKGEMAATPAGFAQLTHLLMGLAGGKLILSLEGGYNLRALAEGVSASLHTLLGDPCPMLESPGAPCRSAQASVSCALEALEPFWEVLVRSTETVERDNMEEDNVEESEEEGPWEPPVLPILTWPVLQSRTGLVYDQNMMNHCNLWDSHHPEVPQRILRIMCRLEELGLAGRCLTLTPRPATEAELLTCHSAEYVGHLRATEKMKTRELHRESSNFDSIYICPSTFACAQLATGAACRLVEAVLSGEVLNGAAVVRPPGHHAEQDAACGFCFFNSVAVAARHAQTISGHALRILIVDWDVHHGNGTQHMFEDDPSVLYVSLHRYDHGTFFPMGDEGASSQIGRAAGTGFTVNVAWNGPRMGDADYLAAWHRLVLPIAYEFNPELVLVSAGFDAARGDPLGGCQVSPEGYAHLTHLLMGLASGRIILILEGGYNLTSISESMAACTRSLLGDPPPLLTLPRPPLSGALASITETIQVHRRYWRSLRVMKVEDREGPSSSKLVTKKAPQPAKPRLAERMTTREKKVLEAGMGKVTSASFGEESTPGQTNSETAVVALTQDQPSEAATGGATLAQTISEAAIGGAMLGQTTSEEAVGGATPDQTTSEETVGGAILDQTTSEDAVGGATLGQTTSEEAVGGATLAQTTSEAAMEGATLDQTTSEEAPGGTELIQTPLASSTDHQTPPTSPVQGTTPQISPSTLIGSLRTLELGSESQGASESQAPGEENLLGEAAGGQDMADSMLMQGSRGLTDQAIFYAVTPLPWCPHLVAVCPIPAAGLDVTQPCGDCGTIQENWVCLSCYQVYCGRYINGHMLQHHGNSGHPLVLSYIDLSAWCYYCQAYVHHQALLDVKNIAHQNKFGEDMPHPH
Description: as §4

Structure (SMILES): COc1cccc([S+]([O-])C/C=C\SSCc2ccc(Cl)cc2)c1 (stereo not shown) [Example 24, (Z)-1-(4-chlorobenzyl)-2-(3-(3-methoxyphenylsulfinyl)prop-1-enyl)disulfane]
- GI50 [1]: 5.82 µM
- GI50 [2]: 5.8 µM
- IC50 (HDAC 1): 1.27 µM
- GI50 [3]: 3.57 µM
- GI50 [4]: 3.65 µM
- Inhibitory activity (%) HDAC 8 (HDAC 8): 140.4%
- GI50 [5]: 5.97 µM
- GI50 [6]: 5.27 µM

Structure (SMILES): C=CCSS/C=C\C[S+]([O-])CC=C (stereo not shown) [Comparative Example 2, Z-Ajoene, reference compound]
- tumor size / cancer proliferation (FIGS. 2, 3) [7]: cancer proliferation was inhibited
- GI50 [1]: > 10 µM
- changes in weight of mice / visible toxicity (FIG. 1) [8]: only normal weight increases were observed
- GI50 [2]: > 10 µM
- GI50 [3]: > 10 µM
- GI50 [4]: > 10 µM
- Inhibitory activity (%) HDAC 8 (HDAC 8): 52.5%
- GI50 [5]: > 10 µM
- GI50 [6]: > 10 µM

Structure (SMILES): O=C(CCCCCCC(=O)Nc1ccccc1)NO [SAHA, reference compound]
- tumor size / cancer proliferation (FIGS. 2, 3) [7]: cancer proliferation was inhibited

Structure (SMILES): C=CCSS/C=C/C[S+]([O-])CC=C (stereo not shown) [Comparative Example 1, E-Ajoene, reference compound]
- tumor size / cancer proliferation (FIGS. 2, 3) [7]: cancer proliferation was inhibited
- changes in weight of mice / visible toxicity (FIG. 1) [8]: only normal weight increases were observed
- Inhibitory activity (%) HDAC 8 (HDAC 8): 73.4%

Structure (SMILES): [O-][S+](C/C=C\SSCc1ccccc1)c1ccccc1 (stereo not shown) [Example 6, (Z)-1-benzyl-2-(3-(phenylsulfinyl)prop-1-enyl)disulfane]
- IC50 (HDAC 6): 49.1 µM
- GI50 [1]: 5.42 µM
- GI50 [2]: 3.25 µM
- IC50 (HDAC 1): 3.89 µM
- GI50 [3]: 3.96 µM
- GI50 [4]: 6.48 µM
- Inhibitory activity (%) HDAC 8 (HDAC 8): 129.1%
- IC50 (HDAC 8; recombinant HDAC enzyme, Boc-Lys(acetyl)-AMC, read-out: IC50 HDAC 8): 0.043 µM
- GI50 [5]: 5.35 µM
- GI50 [6]: 4.91 µM
